Assay results from patent US20160263131A1, “TREATMENT OF HEPATIC FIBROSIS USING AN INHIBITOR OF CBP/CATENIN” (priority 2013, published 2016).

Columns and labels:
NASH mice [1] = experiment: Whole blood glucose in NASH mice; type: in vivo, C57BL/6J mice; settings: mean±SD
Description: (§1) Non-fasting blood glucose was measured in whole blood using Life Check (EIDIA, Japan). For serum biochemistry, blood was collected in polypropylene tubes without anticoagulant and kept at room temperature for 30 minutes, followed by at 4° C. for 1 hour. The blood samples were then centrifuged at 1,000×g for 15 minutes at 4° C. The supernatant was collected and stored at −80° C. until use. Serum ALT and TG levels were measured by FUJI DRI-CHEM 7000 (Fujifilm, Japan).

NASH mice [2] = experiment: Liver weight and liver-to-body weight ratio in NASH mice; type: in vivo, C57BL/6J mice; settings: mean±SD; for Liver-to-body weight ratio: Vehicle 8.1±1.1, no significant difference; for Mean liver weight: Vehicle 1870±418, no significant difference
Description: (§2) The viability, clinical signs and behavior were monitored daily. Body weight was recorded daily before drug administration. […] The animals were sacrificed by exsanguination through direct cardiac puncture under ether anesthesia (Wako Pure Chemical Industries).

NASH mice [3] = experiment: Serum TG in NASH mice; type: in vivo, C57BL/6J mice; settings: mean±SD
Description: as §1

NASH mice [4] = experiment: Liver TG content in NASH mice; type: in vivo, C57BL/6J mice; settings: mean±SD, Vehicle 58.8±26.9, no significant difference
Description: Liver total lipid-extracts were obtained from right lobes by Folch's method (Folch J. et al, J. Biol. Chem. 1957; 226 (1): 497). The livers were homogenized in chloroform-methanol (2:1, v/v) and incubated overnight at room temperature. After washing with chloroform-methanol-water (8:4:3, v/v/v), the extracts were evaporated to dryness, and dissolved in isopropanol. Liver TG levels were measured by Triglyceride E-test (Wako Pure Chemical Industries). Extracts were diluted 2- to 4-fold in isopropanol when the TG contents exceed the limit of detection.

[5] = Body weight and general condition of NASH mice; settings: for Mean body weight at sacrifice / Mean body weight during the treatment period: NASH mice; for Mean body weight at sacrifice: mean±SD, Vehicle 22.9±2.9, no significant difference; for Mean body weight during the treatment period: versus vehicle group
Description: as §2

α-SMA = experiment: Quantitative RT-PCR of liver, α-SMA mRNA, NASH mice; type: in vivo, C57BL/6J mice; settings: 13 weeks of age, mean ± SD
Description: (§3) Total RNA was extracted from liver samples using RNAiso (Takara Bio, Japan) according to the manufacturer's instructions. One μg of RNA was reverse-transcribed using a reaction mixture containing 4.4 mM MgCl2 (Roche, Switzerland), 40 U RNase inhibitor (Toyobo, Japan), 0.5 mM dNTP (Promega, USA), 6.28 μM random hexamer (Promega), 5× first strand buffer (Promega), 10 mM dithiothreitol (Invitrogen, USA) and 200 U MMLV-RT (Invitrogen) in a final volume of 20 μL. The reaction was carried out for 1 hour at 37° C., followed by 5 minutes at 99° C. Real-time PCR was performed using real-time PCR DICE and SYBR premix Taq (Takara Bio). To calculate the relative mRNA expression level, the expression of each gene was normalized to that of reference gene 36B4 (gene symbol: Rplp0). Information of PCR-primer sets and the plate layout was described in Table 1.

NASH mice [6] = experiment: Sirius red staining, fibrosis area in liver of NASH mice; type: in vivo, C57BL/6J mice; settings: for Sirius red-positive area (fibrosis area): NASH mice, 13 weeks of age, mean ± SD, n = 8, Vehicle 1.02 ± 0.33
Description: C57BL/6J mice (15-day pregnant female) were obtained from Charles River Laboratories Japan (Kanagawa, Japan). All animals used in this study were housed and cared for in accordance with the Japanese Pharmacological Society Guidelines for Animal Use. The animals were maintained in a SPF facility under controlled conditions of temperature (23±2° C.), humidity (45±10%), lighting (12-hour artificial light and dark cycles; light from 8:00 to 20:00) and air exchange. A high pressure (20±4 Pa) was maintained in the experimental room to prevent contamination of the facility. The animals were housed in polycarbonate cages KN-600 (Natsume Seisakusho, Japan) with a maximum of 4 mice per cage. Sterilized PULMASμ (Material Research Center, Japan) was used for bedding and replaced once a week. Sterilized solid HFD was provided ad libitum, being placed in the metal lid on top of the cage. Pure water was provided ad libitum from a water bottle equipped with a rubber stopper and a sipper tube. Water bottles were replaced once a week, cleaned and sterilized in autoclave and reused. Mice were identified by numbers engraved on earrings. Each cage was labeled with a specific identification code.

Collagen Type 3 = experiment: Quantitative RT-PCR of liver, Collagen Type 3 mRNA, NASH mice; type: in vivo, C57BL/6J mice; settings: 13 weeks of age, mean ± SD
Description: as §3

NASH mice [7] = experiment: Serum ALT in NASH mice; type: in vivo, C57BL/6J mice; settings: mean±SD, Vehicle 58±29, no significant difference
Description: as §1

[8] = high dose 3 mg/kg/day s.c. infusion 9-13 wks
[9] = low dose 1 mg/kg/day s.c. infusion 9-13 wks

C[C@H]1[C@H]2N(C(=O)CN(C)N2C(=O)NCc2ccccc2)[C@@H](Cc2ccc(OP(=O)(O)O)cc2)C(=O)N1Cc1cccc2cccnc12 [Compound A, 4-(((6S,9S,9aS)-1-(benzylcarbamoyl)-2,9-dimethyl-4,7-dioxo-8-(quinolin-8-ylmethyl)octahydro-1H-pyrazino[2,1-c][1,2,4]triazin-6-yl)methyl)phenyl dihydrogen phosphate]
Whole blood glucose (non-fasting) (NASH mice [1]; high dose 3 mg/kg/day s.c. infusion 9-13 wks, Vehicle 605±134, tended to increase): 791 ± 54 mg/dL
Whole blood glucose (non-fasting) (NASH mice [1]; low dose 1 mg/kg/day s.c. infusion 9-13 wks, Vehicle 605±134, no significant difference): 677 ± 36 mg/dL
Liver-to-body weight ratio (NASH mice [2]; [8]): 8.5±0.6%
Mean liver weight (NASH mice [2]; [8]): 2024 ± 159 mg
Liver-to-body weight ratio (NASH mice [2]; [9]): 8.0±0.8%
Mean liver weight (NASH mice [2]; [9]): 1803 ± 219 mg
Serum TG (NASH mice [3]; high dose 3 mg/kg/day s.c. infusion 9-13 wks, Vehicle 391±175, increased): 1145 ± 580 mg/dL
Serum TG (NASH mice [3]; low dose 1 mg/kg/day s.c. infusion 9-13 wks, Vehicle 391±175, no significant difference): 815 ± 754 mg/dL
Liver TG content (NASH mice [4]; [8]): 67.8 ± 24.0 mg/g
Liver TG content (NASH mice [4]; [9]): 64.8 ± 25.6 mg/g
Mean body weight at sacrifice [5, 8]: 23.7 ± 1.1 g
Mean body weight during the treatment period ([5]; high dose 3 mg/kg/day s.c. infusion): no significant differences
Mean body weight at sacrifice [5, 9]: 22.6 ± 2.6 g
Mean body weight during the treatment period ([5]; low dose 1 mg/kg/day s.c. infusion): no significant differences
General condition ([5]; any of the animals (all groups), throughout the treatment period): No deterioration
α-SMA mRNA expression level (relative, normalized to 36B4) (α-SMA; high dose 3 mg/kg/day s.c. infusion 9-13 wks, n = 8, Vehicle 3.19 ± 1.81, no significant difference, 3 mg/kg/day): 2.23±1.23
α-SMA mRNA expression level (relative, normalized to 36B4) (α-SMA; low dose 1 mg/kg/day s.c. infusion 9-13 wks, n = 8, Vehicle 3.19 ± 1.81, tended to be down-regulated, 1 mg/kg/day): 1.88±0.60
Sirius red-positive area (fibrosis area) (NASH mice [6]; high dose 3 mg/kg/day continuous s.c. infusion 9-13 wks, significantly decreased, 3 mg/kg/day): 0.67±0.21%
Sirius red-positive area (fibrosis area) (NASH mice [6]; low dose 1 mg/kg/day continuous s.c. infusion 9-13 wks, no significant difference, 1 mg/kg/day): 0.82±0.31%
Fibrosis (FIG. 1 legend) (NASH mice [6]; NASH rat model as printed in the legend, FIG. 1 shows high-dose 3 mg/kg/day versus Vehicle): reduces fibrosis
Collagen Type 3 mRNA expression level (relative, normalized to 36B4) (Collagen Type 3; high dose 3 mg/kg/day s.c. infusion 9-13 wks, n = 8, Vehicle 3.09 ± 1.51, tended to be down-regulated, 3 mg/kg/day): 2.22±0.46
Collagen Type 3 mRNA expression level (relative, normalized to 36B4) (Collagen Type 3; low dose 1 mg/kg/day s.c. infusion 9-13 wks, n = 8, Vehicle 3.09 ± 1.51, significantly down-regulated, 1 mg/kg/day): 1.93±0.37
Serum ALT (NASH mice [7]; [8]): 49±17 U/L
Serum ALT (NASH mice [7]; [9]): 45±17 U/L
